A short description of data set [1]: Pharmacokinetics in rats after single IV and PO administration (LC-MS/MS). The format is in vivo, male SD rats. The settings on record: SD rats, comparative compounds; for PO F: PO 10 mg/kg vs IV 1 mg/kg according to Table 3; for AUC(0-t) / clearance / Cmax / Vd / half-life: male, rat, plasma; for clearance: read-out: IV CL; for Vd: read-out: IV Vss. How it is done: • 1. Objective: This study aimed to characterize the pharmacokinetic properties of selected compounds from the examples of the present invention in SD rats following single intravenous (IV) injection and oral (PO) administration using LC-MS/MS methodology. • 2. Experimental Materials: Test compounds were prepared according to the examples of the present invention; male SD rats were obtained from the Laboratory Animal Department of Shanghai Institute of Planned Parenthood Research (License No. SCXK(Shanghai)2018-0006) or Shanghai Jihui Laboratory Animal Breeding Co., Ltd. (License No. SCXK(Shanghai)2022-0009). • 3. Experimental Methods: Preparation of 0.5% methylcellulose: 5 g of methylcellulose was weighed and dissolved in 1000 mL of purified water. Preparation of 0.5% methylcellulose (pH = 5.03): 5 g of methylcellulose was weighed and dissolved in 1000 mL of purified water, and the pH was adjusted to 5.03 with 100 mM citric acid.
Preparation of oral formulations: The required amount of test compound was weighed and dissolved in 0.5% methylcellulose solution or 0.5% methylcellulose (pH = 5.03) to obtain a suspension or solution at 1 or 3 mg/mL.
Preparation of intravenous injection formulations: The required amount of test compound (EB229, EB300, EB341, EB342) was weighed and dissolved in 0.5 mL dimethyl sulfoxide to prepare a 4 mg/mL solution. To 0.25 mL of this solution, 0.5 mL of polyethylene glycol 15-hydroxystearate (Solutol) and 4.25 mL of normal saline were added to obtain a 0.2 mg/mL solution. For EB834, 6 mg was weighed and dissolved in 0.1 mL dimethyl sulfoxide, followed by addition of 0.2 mL polyethylene glycol 15-hydroxystearate (Solutol) and 1.7 mL normal saline to obtain a 3 mg/mL solution.
Dosing: Male SD rats were fasted overnight prior to oral (PO) administration; fasting was not required for the single intravenous (IV) injection group. Food was provided 4 hours post-dosing.
Sample Collection: Blood was collected from the jugular vein or other suitable veins, with 0.2 mL collected at each time point. Samples were placed in tubes containing dipotassium ethylenediaminetetraacetate and kept on ice prior to centrifugation. Within 1 hour of blood collection, samples were centrifuged at 6800 × g for 6 minutes at 2-8°C and stored at -80°C.

Data set [2] has as its system MV-4-11 cells. Kind of data set: Antiproliferative activity against MV-4-11 cells (CTG method, 72 h). It is filed as cell-based. The settings on record: Homo sapiens, MV4-11, 72 hours incubation, CellTiter-Glo. The source says: • 1. Experimental Principle: MV-4-11 is a human leukemia cell line harboring MLL translocation and expressing the MLL fusion protein MLL-AF4. […] Experimental Materials: CellTiter-Glo was purchased from Promega (Cat. #G7571); IMDM medium was purchased from Gibco (Cat. #12440061); fetal bovine serum was purchased from Excell (Cat. #FND500); dimethyl sulfoxide (DMSO) was purchased from Sigma (Cat. #D2650); 384-well cell culture plates were purchased from Corning (Cat. #3756); automated cell counter was obtained from Life Technologies (Model: Countess II); microplate reader was obtained from PerkinElmer (Model: EnVision Multilabel Reader). • 3. Experimental Methods: Cells in logarithmic growth phase were resuspended in growth medium (IMDM + 10% FBS) and diluted to the target density (50,000/mL). The cell suspension was seeded into 384-well plates at 50 µL per well and incubated overnight at 37°C in a 5% CO2 incubator.
Test compounds were dissolved in DMSO to prepare 10 mM stock solutions. The stock solutions were first diluted to 2 mmol/L with DMSO, followed by 3-fold serial dilutions to generate 10 concentrations. From each concentration, 5.5 µL was diluted with 94.5 µL growth medium. The diluted solutions were then added to the 384-well plates containing seeded cells at 5 µL per well.
Cells treated with test compounds were incubated at 37°C in a 5% CO2 incubator for 72 hours. The 384-well plates were equilibrated at room temperature, and 15 µL of CellTiter-Glo reagent was added to each well. The plates were mixed on a vortex mixer for 2 minutes and incubated at room temperature for 60 minutes. Luminescence values were read using the EnVision Multilabel Reader, and IC50 values were calculated using GraphPad Prism 5.0 software.
A general note: In ATP-based viability assays light output follows the ATP content of the culture.

For the next data set, the system named is HL-60 cells. Kind of data set: Antiproliferative activity, CellTiter-Glo, 7 days (Test Example 2), HL-60. It is filed as cell-based. The settings on record: Homo sapiens, 168 h, HL-60 cells (no Menin-MLL fusion), 7 days incubation. The source says: (§1) [0134] 1. Experimental Principle: MV-4-11, Molm-13, and OCI-AML-3 cells are human hematologic tumor cell lines harboring the Menin-MLL fusion. HL-60 is a wild-type human hematologic tumor cell line without Menin-MLL fusion. […] 2. Experimental Materials: MV-4-11, Molm-13, OCI-AML-3, and HL-60 cells were all purchased from Cobioer; CellTiter-Glo® was purchased from Promega (Cat. #G7571); RPMI-1640 was purchased from Viva Cell (Cat. #C3010-0500); IMDM was purchased from Viva Cell (Cat. #C3040-0500); fetal bovine serum (FBS) was purchased from Biosera (Cat. #FB-1058/500); penicillin-streptomycin was purchased from BasalMedia (Cat. #S110JV); 0.25% Trypsin-EDTA was purchased from BasalMedia (Cat. #S310KJ); dimethyl sulfoxide (DMSO) was purchased from Sinopharm (Cat. #30072418); 96-well plates were purchased from Corning (Cat. #3610); incubator was obtained from PHCbi (Model: MCO-18AC); inverted microscope was obtained from Mingmei (Cat. #MI52-0); automated cell counter was obtained from BodBoge (Model: JSY-SC-031N); microplate reader was obtained from PerkinElmer (Model: Envision); data processing software: GraphPad Prism 8.0. 3. Experimental Methods: Four cell lines in logarithmic growth phase were resuspended in their respective growth media (MV-4-11: IMDM + 20% FBS; Molm-13: RPMI-1640 + 20% FBS; OCI-AML-3: RPMI-1640 + 20% FBS; HL-60: RPMI-1640 + 10% FBS) and diluted to target densities (12,500, 6,250, 12,500, and 12,500/mL, respectively). The cell suspensions were seeded into 96-well plates at 80 µL per well and incubated overnight at 37°C in a 5% CO2 incubator. Culture medium served as the background control. Test compounds were dissolved in DMSO to prepare 10 mmol/L stock solutions. The stock solutions were first diluted to 2 mmol/L with DMSO, followed by 4-fold serial dilutions to generate 10 concentrations. From each concentration, 2 µL was diluted with 78 µL growth medium. […] After incubation at room temperature for 10 minutes, luminescence values were read using the EnVision microplate reader, and IC50 values were calculated using GraphPad Prism 8.0 software. […]

Data set [3] relates to MV-4-11 cells. Kind of data set: Antiproliferative activity, CellTiter-Glo, 7 days (Test Example 2), MV-4-11. It is filed as cell-based. The settings on record: Homo sapiens, MV4-11, 168 h, 7 days incubation.
Excerpt: as §1

The mark [4] stands for this setting: IV, dose 1 mg/kg according to Table 3, read-out: IV AUC(0-t).
The mark [5] stands for this setting: IV, dose 1 mg/kg according to Table 3.
Setting [6] is: IV, dose 1 mg/kg according to Table 3, read-out: IV Cmax.
The mark [7] stands for this setting: IV, dose 1 mg/kg according to Table 3, read-out: IV t1/2 (converted).
The mark [8] stands for this setting: PO, dose 10 mg/kg in 0.5% MC according to Table 3, read-out: PO AUC(0-t).
The mark [9] stands for this setting: PO, dose 10 mg/kg in 0.5% MC according to Table 3, read-out: PO Cmax.
Setting [10] is: PO, dose 10 mg/kg in 0.5% MC according to Table 3, read-out: PO t1/2 (converted).

Like-named read-outs stand apart in the source and are kept apart here.

The term AUC(0-t) denotes the area under the concentration-time curve up to a stated or last time point. As a reminder, the Cmax is the maximum level reached in the sampled fluid or tissue. Regarding `CCN(C(=O)c1cc(F)ccc1N1CCN(C2CCN(Cc3ccc4[nH]c(C#N)cc4c3C)CC2)c2ncncc21)C(C)C` [Comparative Comp. 7], in data set [1], the “PO F” value stood at 3.7%. Besides, the AUC(0-t) in data set [1] (setting [4]) was determined as 264 ng·h/mL; in data set [1] (setting [8]), 119 ng·h/mL. The clearance in data set [1] (setting [5]) is 62.1 mL/min/kg. Also, the Cmax in data set [1] (setting [6]) was 152 ng/mL; in data set [1] (setting [9]) it was 27 ng/mL. Moreover, the Vd in data set [1] (setting [5]) turned out to be 6.62 L/kg. Further, the half-life in data set [1] (setting [7]) is 1.55 h; in data set [1] (setting [10]), 2.29 h.

On to `CCN(C(=O)c1cc(F)ccc1N1CCN(C2CCN(Cc3ccc4c(cc(C#N)n4C[C@@H]4CCNC4)c3C)CC2)c2ncncc21)C(C)C` [Comparative Comp. 8], for which the “PO F” value in data set [1] was found to be 13.85%. The results for the AUC(0-t) in data set [1] (setting [4]) and in data set [1] (setting [8]) were 85.7 ng·h/mL and 119 ng·h/mL, respectively. The clearance in data set [1] (setting [5]) was 185 mL/min/kg. The Cmax in data set [1] (setting [6]) came out at 271 ng/mL; in data set [1] (setting [9]), 41.9 ng/mL. The Vd in data set [1] (setting [5]) came out at 9.61 L/kg. Moreover, the half-life in data set [1] (setting [7]) was 2.06 h; in data set [1] (setting [10]) it was 1.8 h.

Take `CCN(C(=O)c1cc(F)ccc1N1CCN(C2CCN(Cc3ccc4c(cc(C#N)n4CC4CNC4)c3C)CC2)c2ncncc21)C(C)C` [Comparative Comp. 9]: the “PO F” value in data set [1] was 13.50%. For the same compound, the values for the AUC(0-t) in data set [1] (setting [4]) and in data set [1] (setting [8]) were 169 ng·h/mL and 228 ng·h/mL, respectively. Also, the clearance in data set [1] (setting [5]) turned out to be 92.4 mL/min/kg. Also, the Cmax in data set [1] (setting [6]) came out at 376 ng/mL; in data set [1] (setting [9]), 101 ng/mL. For the same compound, in data set [1] (setting [5]), the Vd amounted to 30.6 L/kg. Besides, the half-life in data set [1] (setting [7]) was 5.98 h; in data set [1] (setting [10]), 5.12 h.

For the compound `CCN(C(=O)c1cc(F)ccc1N1CCN(C2CCN(Cc3ccc4c(cc(C#N)n4CC4COC4)c3C)CC2)c2ncncc21)C(C)C` [Comparative Comp. 10], the “PO F” value in data set [1] is 49.68%. The results for the AUC(0-t) in data set [1] (setting [4]) and in data set [1] (setting [8]) were 16.9 ng·h/mL and 83.8 ng·h/mL, respectively. For the same compound, the clearance in data set [1] (setting [5]) was determined as 947 mL/min/kg. For the same compound, the Cmax was 16.2 ng/mL in data set [1] (setting [6]) and 33.3 ng/mL in data set [1] (setting [9]). Besides, the Vd in data set [1] (setting [5]) is 59.4 L/kg. Also, the half-life was 0.82 h in data set [1] (setting [7]) and 1.26 h in data set [1] (setting [10]).

Broadly, the IC50 is the concentration at which inhibition is half-maximal. Read a high IC50 as lower potency. The compound `CCN(C(=O)c1cc(F)ccc1N1CCN(C2CCN(C[C@H]3CC[C@H](NS(C)(=O)=O)CC3)C2)c2ncncc21)C(C)C` (stereo partly shown) [Comparative Compound 1] gave a 50% inhibitory concentration (IC50) in the data set on MV-4-11 cells [2] of 293 nM.

`CCN(C(=O)c1cc(F)ccc1N1CCN(C2CCN(Cc3ccc4[nH]c(C#N)cc4c3C)C2)c2ncncc21)C(C)C` (stereo not shown) [Comparative Compound 2] had an IC50 in the data set on MV-4-11 cells [2] of 800 nM.

In the case of `CNc1nc(NC2CCN(Cc3ccc4c(cc(C#N)n4C[C@H](C)N4CCN(S(C)(=O)=O)CC4)c3C)CC2)c2cc(CC(F)(F)F)sc2n1` [KO539], the IC50 in the data set on HL-60 cells amounted to 2050 nM; in the data set on MV-4-11 cells [3], 14.4 nM.

(Values after patent publication EP4775580A1, “COMPOUND, PHARMACEUTICAL COMPOSITION COMPRISING SAME, AND USE THEREOF” (Euregen Biopharma Co., Ltd., priority 2023, dated 2025).)
